We go through one compound from patent publication US20260116910A1, “POLYCYCLIC COMPOUNDS AND METHODS THEREOF” (HEPAITECH (BEIJING) BIOPHARMA TECHNOLOGY CO., LTD., priority 2021, published 2026).

The structures appear in SMILES notation.

What all share (type): cell-based
One experiment addresses T1, human FXR (NR1H4) (Homo sapiens, UniProt Q96RI1).
T1 sequence (Q96RI1 1-476 isoform Q96RI1-1): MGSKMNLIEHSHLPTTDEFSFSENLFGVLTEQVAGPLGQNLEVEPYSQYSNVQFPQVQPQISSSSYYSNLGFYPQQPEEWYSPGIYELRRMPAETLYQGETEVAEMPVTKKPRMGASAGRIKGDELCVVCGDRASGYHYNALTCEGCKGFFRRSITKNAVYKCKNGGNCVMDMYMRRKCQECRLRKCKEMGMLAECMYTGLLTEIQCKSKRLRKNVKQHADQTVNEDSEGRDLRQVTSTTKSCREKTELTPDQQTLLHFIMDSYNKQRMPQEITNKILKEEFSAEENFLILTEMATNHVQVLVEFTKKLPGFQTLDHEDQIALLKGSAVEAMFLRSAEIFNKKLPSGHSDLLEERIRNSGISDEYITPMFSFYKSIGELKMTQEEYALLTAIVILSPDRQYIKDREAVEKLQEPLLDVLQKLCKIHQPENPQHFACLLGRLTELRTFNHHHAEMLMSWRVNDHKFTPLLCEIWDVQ
Kind of experiment: Human FXR (NR1H4) agonist assessment, FXRE-NanoLuc reporter in HEK293T cells. The following applies: FXR activation, HEK293T FXRE-NanoLuc reporter, 24 hr. The procedure, abridged: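 HEK293T cells stably expressing human FXR with an FXRE-NanoLuc reporter were treated with compounds for 24 hr at 37 °C, with 0.01% DMSO as negative control. Medium was read for luminescence after 5 min with coelenterazine. EC50 was fitted by sigmoid to concentration-response data.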

In a further experiment the target is T2, human TGR5 (Homo sapiens, UniProt Q8TDU6).
T2 sequence (Q8TDU6 1-330): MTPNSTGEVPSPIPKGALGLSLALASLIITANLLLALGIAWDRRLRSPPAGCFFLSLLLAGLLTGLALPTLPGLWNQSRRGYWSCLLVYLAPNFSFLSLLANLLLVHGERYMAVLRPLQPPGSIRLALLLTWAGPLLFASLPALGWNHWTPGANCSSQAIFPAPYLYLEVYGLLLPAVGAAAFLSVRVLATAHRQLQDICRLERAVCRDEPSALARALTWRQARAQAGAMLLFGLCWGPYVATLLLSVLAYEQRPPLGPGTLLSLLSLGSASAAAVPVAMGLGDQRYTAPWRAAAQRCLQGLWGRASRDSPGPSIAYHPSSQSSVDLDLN
Kind of experiment: TGR5 agonist assessment, CRE-NanoLuc reporter in HEK293T cells. On the procedure:
Cells were detached by centrifuging (1000 rpm, 3 min). The pellet was re-suspended in medium, and cell density was adjusted to about 1×10^6 cells/mL. […] Cells in the microplates were cultured overnight.
Culture medium was replaced, and compounds were added to the wells. 0.01% DMSO (v/v) served as negative control. Plates were incubated at 37° C. in 5% CO2 for 24 hr.
In the following day, a 10 μL aliquot of cell culture medium was removed from each well and combined with 40 μL culture medium plus […] assay buffer (containing 20 mM of the luciferase substrate coelenterazine). After 5 min incubation, luminescence was measured using an EnVision plate reader (PerkinElmer).
In some embodiments, gradient diluted solutions of several concentrations were used to treat cells and corresponding responses were used to fit sigmoid function and to derive EC50 in Origin.

The target of the next experiment is MRGPRX4 (Homo sapiens, UniProt Q96LA9). Kind of experiment: MRGPRX4 activation, Fluo-8 Ca2+ FLIPR assay in HEK293T cells stably expressing MRGPRX4. The procedure, abridged:
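Cells seeded overnight to >95% confluence, loaded 40-60 min at room temperature with 2 μM Fluo-8 AM, then kept in HHBS. Baseline read 30 s, compound added, signal followed 150 s more.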

Chain of MRGPRX4 (Q96LA9 whole entry): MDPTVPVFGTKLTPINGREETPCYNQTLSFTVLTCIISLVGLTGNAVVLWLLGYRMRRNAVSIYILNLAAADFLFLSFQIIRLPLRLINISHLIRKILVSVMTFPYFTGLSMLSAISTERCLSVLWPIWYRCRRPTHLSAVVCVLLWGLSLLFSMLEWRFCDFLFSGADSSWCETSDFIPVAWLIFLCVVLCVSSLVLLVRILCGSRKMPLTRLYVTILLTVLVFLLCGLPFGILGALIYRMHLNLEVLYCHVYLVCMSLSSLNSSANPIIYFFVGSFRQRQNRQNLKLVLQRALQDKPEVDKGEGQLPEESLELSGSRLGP

As a reminder, the EC50 is the midpoint of the concentration-response curve. For `CC[C@H]1[C@@H](O)[C@@H]2[C@H](CC[C@]3(C)[C@@H]([C@H](C)CCNC(=O)NS(=O)(=O)N(C)C)CC[C@@H]23)[C@@]2(C)CCCC[C@@H]12` [5-15], the “Efficacy (maximum measured induction of NanoLuc, normalized to CDCA set as 100%)” value at human FXR (NR1H4) is on record as “C (100%<efficacy <=300%)”. Besides, the EC50 at human FXR (NR1H4) (read-out: EC50) is below 1000 nM; at human TGR5 it was 13 nM; on MRGPRX4 (MRGPRX4 activation, Ca2+ fluorescence, no activation in tested range reported as III, read-out: Activity (EC50 μM)), above 100 µM. Besides, the “MRGPRX4 activation, Average” value at MRGPRX4 (E3-6-2, 1st of 6 concentration columns (head not in rows shown)) worked out at 0.087; at MRGPRX4 (E3-6-2, 3rd of 6 concentration columns (head not in rows shown)) it was 0.013; at MRGPRX4 (E3-6-2, 6th of 6 concentration columns (head not in rows shown)), 0.010; on MRGPRX4 (E3-6-2, concentration not given), 0.010.
